We go through five compounds from publication PMC9653339, “Revisiting the anticancer properties of phosphane(9-ribosylpurine-6-thiolato)gold(I) complexes and their 9H-purine precursors” (Journal of Biological Inorganic Chemistry, 2022).

Experiment [1] concerns HCT-116^wt colon carcinoma cells. Put plainly: MTT cell viability assay, HCT-116wt. Type of experiment: cell-based, human. The conditions noted are these: 72 h. The protocol: (§1) Cells were seeded in 96-well microtiter plates (Sarstedt) with a cell density of 0.05 × 10^6 cells per ml and 100 µL per well and incubated for 24 h. A dilution series of test compounds was added to the wells, ranging in twelve steps from 100 µM to 5 nM. As a control, equal amounts of DMSO were added. Treated cells were further incubated for 72 h. Then, 12.5 µL per well of MTT solution (0.05% in phosphate-buffered saline (PBS)) was added, followed by another 2 h of incubation. The plates were centrifuged, the medium was discarded and 25 µL per well of SDS solution in DMSO (10% SDS, 0.6% AcOH in DMSO) was added to dissolve the formazan. The plates were incubated for a further hour. Absorbances at 570 nm and 630 nm were measured using a plate reader (Tecan). Background absorbance (630 nm) was subtracted from the formazan signal (570 nm). The resulting absorbance was directly proportional to the amount of viable cells. The control was normalized to 100% viable cells and viability of cells treated with test compounds was calculated accordingly. IC50 values were calculated based on a sigmoidal fit model using GraphPad Prism. Means and SD were calculated from at least four independent experiments.
In general terms: Formazan colour is commonly taken as a measure of viable cells.

For experiment [2], the system named is HCT-116^p53−/− (p53 knockout mutant) colon carcinoma cells. In words: MTT cell viability assay, HCT-116 p53-/-. The conditions noted are these: 72 h. Type of experiment: cell-based, human. As to the method: as §1
Experiment [3] relates to HeLa cervix carcinoma cells. Put plainly: MTT cell viability assay, HeLa. The class given is cell-based, human. The conditions noted are these: 72 h. As to the method:
as §1, with “All complexes stable in solution were investigated for their anti-proliferative effect on nine human cancer cell lines, using the MTT-based cell viability assay. Cells” for “Cells”

Experiment [4] deals with HT-29 colon carcinoma cells. In words: MTT cell viability assay, HT-29. Type of experiment: cell-based, human. As to the method:
as §1, with “All complexes stable in solution were investigated for their anti-proliferative effect on nine human cancer cell lines, using the MTT-based cell viability assay. Cells” for “Cells”

Experiment [5] concerns thioredoxin reductase (TrxR). Put plainly: Inhibition of TrxR activity in cell lysates. Type of experiment: biochemical, human. The note with it: lysates of 518A2 melanoma cells. The protocol: For the measurement of TrxR activity, the TrxR Colorimetric Assay Kit (Cayman Chemicals) was used according to manufacturer’s instructions. 1 × 10^8 518A2 melanoma cells were harvested using a cell scraper, homogenized in 5 mL of cold lysis buffer (50 mM K3PO4, 1 mM EDTA, pH 7.4) on ice and centrifuged for 15 min (4 °C, 10,000×g). The protein concentration of the supernatant was determined via Nanodrop. Then, 10 µL Protease Inhibitor Cocktail Plus (Carl Roth) was added to 1 mL of the cell lysate, which was either used for the assay right away or stored at − 80 °C. Prior to use, the assay buffer was warmed to room temperature and the cell lysate, NADPH (Nicotinamide adenine dinucleotide phosphate), ATM (aurothiomalate) and rat liver TrxR enzyme were thawed and kept on ice After determination of the amount of cell lysate for optimum TrxR activity, alle components were pipetted into the wells of a clear 96-well plate and the enzymatic reactions were initiated by addition of NADPH and 5,5′-dithiobis-(2-nitrobenzoic acid (DTNB). Then, the absorbance at 405 nm was measured once every minute using a plate reader (Tecan) at least ten time points. The TrxR activity was measured in the presence and absence of ATM. The difference between the two results renders the DTNB reduction due to TrxR activity. By plotting the average absorbance values as a function of time, the slope of the linear portion of the curve was obtained, and the change of absorbance (ΔA405) per minute could be determined. The values were corrected for unspecific DTNB reduction and the TrxR activity was calculated using the following formula: TrxR activity [µmol/min/mL] = [corrected ΔA/min (sample)/7.92 mM^−1] × [0.2 mL/0.02 mL] × sample dilution. The assay was conducted at 22 °C. All experiments were performed in triplicate and the solvent-treated negative controls were set to 100%.

In experiment [6] the test system is caspase 3/7 in 518A2 melanoma cells. Put plainly: Caspase 3/7 activation. The note with it: 518A2 cells, 10 µM, 6 h. Type of experiment: cell-based, human. The protocol: The assay was conducted, following manufacturer’s instructions using the Cell Meter Caspase 3/7 activity apoptosis assay kit (AAT Bioquest). Briefly, 518A2 melanoma cells were seeded in 96-well flat black microtiter plates with a density of 0.22 × 10^6 cells per mL and 90 µL per well. After 24 h of incubation, 10 µL per well of tenfold diluted test compounds was added, and the cells were incubated for a further 6 h. Subsequently, 100 µL per well of Caspase 3/7 substrate working solution was added and incubated for 1 h in the dark at room temperature. The fluorescence was measured using a micro-plate reader (Tecan) at ex/em = 490/525 nm.

Experiment [7] concerns EA.hy926 cells. Put plainly: Tube formation assay. The class given is cell-based, human. The note with it: 5 µM (CA-4 0.01 µM). The protocol:
EA.hy926 cells were cultured overnight in endothelial medium (37 °C, 95% humidity, 5% CO2) instead of DMEM. In addition, Matrigel was thawed on ice in the refrigerator. Pipette tips and 96-well plates were stored at − 20 °C overnight. The next day, 30 µL of Matrigel was added to each well bubble-free and the well plate was incubated for approximately 45 min (37 °C, 95% humidity, 5% CO2). Subsequently, 100 µL of cell suspension was added to each well at a concentration of 0.4–0.5 × 10^6 cells/mL onto the Matrigel-treated wells and the substances were added in tenfold pre-dilution. This was followed by incubation for approximately 6 h, until tubes formed in the negative control with DMSO. At this point, documentation under the microscope took place.

[8] abbreviates: Homo sapiens, Colon carcinoma cell.

SMILES strings stand for the structures.

As a reminder, the IC50 is the concentration needed to halve the response being measured. A low value points to greater potency. `Sc1ncnc2nc[nH]c12` [6-MP, 6-Mercaptopurine, reference compound]: the IC50 in experiment [1] (setting [8]) was 5.3 ± 0.28 µM; in experiment [2] (setting [8]), 0.58 ± 0.05 µM; in experiment [3] (Homo sapiens, HeLa) it was 1.4 ± 0.1 µM; in experiment [4] (Homo sapiens, HT-29, 72 h), 1.4 ± 0.06 µM. Further, in experiment [5], the “Inhibition of TrxR activity” value was “inhibited TrxR”. In addition, the “Caspase 3/7 activity” value in experiment [6] is given as “increased caspase activity levels”.

With `Nc1nc2nc[nH]c2c(=S)[nH]1` [6-TG, 6-thioguanine, reference compound], the half-inhibitory concentration (IC50) in experiment [3] (Homo sapiens, HeLa) stood at 0.19 ± 0.01 µM; in experiment [4] (Homo sapiens, HT-29, 72 h), 1.2 ± 0.08 µM. For the same compound, in experiment [5], the “Inhibition of TrxR activity” value was “inhibited TrxR”. In experiment [6], the “Caspase 3/7 activity” value is given as “increased caspase activity levels”. Further, the “Inhibition of tube formation” value in experiment [7] is “stronger such effect when compared to 6-MP”.

The compound `CC(=O)OC[C@H]1O[C@@H]([S-])[C@H](OC(C)=O)[C@@H](OC(C)=O)[C@@H]1OC(C)=O.CCP(CC)CC.[Au+]` [Auranofin, auranofin] gave an IC50 in experiment [4] (72 h) of 2 ± 0.18 µM. The “Inhibition of TrxR activity” value in experiment [5] was “inhibited TrxR”. Besides, the “Caspase 3/7 activity” value in experiment [6] is on record as “increased caspase activity levels”. Also, in experiment [7], the “Inhibition of tube formation” value is listed as “inhibitory effects”.

`OC[C@H]1O[C@@H](n2cnc3c([S][Au][PH](c4ccccc4)(c4ccccc4)c4ccccc4)ncnc32)[C@H](O)[C@@H]1O` [Complex 5, (1,7-Dihydro-6H-purine-9-β-D-ribofuranosyl-6-thiolato) (triphenylphosphane) gold(I)]: the half-inhibitory concentration (IC50) is 1.7 ± 0.2 µM in experiment [1], 0.3 ± 0.07 µM in experiment [2], 0.19 ± 0.01 µM in experiment [3] and 1.2 ± 0.09 µM in experiment [4] (72 h). Further, in experiment [5], the “Inhibition of TrxR activity” value was “inhibited TrxR even more strongly than 6-MP, 6-TG and auranofin”. In experiment [6], the “Caspase 3/7 activity” value is on record as “increased caspase activity levels”. For the same compound, the “Inhibition of tube formation” value in experiment [7] is listed as “inhibitory effect, comparable in strength to that of 6-TG”.

Take `Nc1nc([S][Au][PH](c2ccccc2)(c2ccccc2)c2ccccc2)c2ncn([C@@H]3O[C@H](CO)[C@@H](O)[C@H]3O)c2n1` [Complex 6, (2-Amino-1,7-dihydro-6H-purine-9-β-D-ribofuranosyl-6-thiolato) (triphenylphosphane) gold(I)]: the IC50 is 5.5 ± 0.2 µM in experiment [1], 1.4 ± 0.3 µM in experiment [2], 2.4 ± 0.14 µM in experiment [3] and 3.1 ± 0.19 µM in experiment [4] (72 h). In addition, in experiment [5], the “Inhibition of TrxR activity” value was “inhibited TrxR even more strongly than 6-MP, 6-TG and auranofin”. In experiment [6], the “Caspase 3/7 activity” value is recorded as “even exceeded the effects of the three controls”.
